Assay results taken from patent publication US20240207427A1, “SELECTIVE DRUG RELEASE FROM INTERNALIZED CONJUGATES OF BIOLOGICALLY ACTIVE COMPOUNDS” (priority 2021, published 2024).
Where two headings read alike, the source gives them in different places.

Assays:
[1] = system: melanoma cells (SK-MEL-5); experiment: In vitro potency (CellTiter-Glo, 96 h), SK-MEL-5; assay type: cell-based; settings: Homo sapiens, camptothecin drugs, Table 13, CellTiter-Glo after 96 h exposure
Procedure: (§1) In vitro potency was assessed on multiple cancer cell lines. All cell lines were authenticated by STR profiling at IDEXX Bioresearch and cultured for no more than 2 months after resuscitation. Cells cultured in log-phase growth were seeded for 24 hours in 96-well plates containing […] RPMI 1640 supplemented with 20% FBS. Following addition of test articles, cells were incubated with test articles for 4 days at 37 0° C. After 96 hours, growth inhibition was assessed by CellTiterGlo® (Promega, Madison, WI) and luminescence was measured on a plate reader.
(§2) Cell viability was determined by CellTiter-Glo staining after 96 h exposure to the compound. ND=Not Determined. The cancer cell lines tested are renal carcinoma cells (786-0), melanoma cells (A2058), pancreatic cancer cells (BxPC3), non-small-cell lung cancer cells (Calu1), anaplastic large cell lymphoma cells (DEL, DELBVR, Karpas299), Hodgkin's lymphoma cells (L540cy), (Ls 174T), breast cancer cells (MDA-MB-231), acute myeloid leukemia cells (MOLM-13), B-lymphocyte cancer cells (SU-DHL4), multiple myeloma cells (MM.1R), (U266), and melanoma cells (SK-MEL-5).
as §1, with “FBS. Serial dilutions of antibody-drug conjugates in cell culture media were prepared at 4× working concentrations, and 50 μL of each dilution was added to the 96-well plates.” for “FBS.”, “37°” for “37 0°”
(§3) In vitro potency was assessed on multiple cancer cell lines. […] After 96 hours, growth inhibition was assessed by CellTiterGlo® (Promega, Madison, WI) and luminescence was measured on a plate reader.

U266 cells = experiment: In vitro potency (CellTiter-Glo, 96 h), U266; assay type: cell-based; settings: Homo sapiens, U-266; camptothecin drugs, Table 13; CellTiter-Glo after 96 h exposure
Procedure: as §1, §2
as §1, with “FBS. Serial dilutions of antibody-drug conjugates in cell culture media were prepared at 4× working concentrations, and 50 μL of each dilution was added to the 96-well plates.” for “FBS.”, “37°” for “37 0°”
as §3

[2] = system: multiple myeloma cells (MM.1R); experiment: In vitro potency (CellTiter-Glo, 96 h), MM.1R; assay type: cell-based; settings: camptothecin drugs, Table 13, CellTiter-Glo after 96 h exposure
Procedure: as §1, §2
as §1, with “FBS. Serial dilutions of antibody-drug conjugates in cell culture media were prepared at 4× working concentrations, and 50 μL of each dilution was added to the 96-well plates.” for “FBS.”, “37°” for “37 0°”
as §3

[3] = system: B-lymphocyte cancer cells (SU-DHL4); experiment: In vitro potency (CellTiter-Glo, 96 h), SU-DHL-4; assay type: cell-based; settings: Homo sapiens, SU-DHL-4, 96 h
Method in brief: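 RPMI 1640/20% FBS cultures, log phase, plated 24 h → ADC titration → 4 d, 37 °C → luminescence → IC50, ng/mL.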

[4] = system: pancreatic cancer cells (BxPC3); experiment: In vitro potency (CellTiter-Glo, 96 h), BxPC3; assay type: cell-based; settings: Homo sapiens, BXPC-3, 96 h
Method in brief: (§4)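 Log-phase cells were seeded for 24 h in RPMI 1640 with 20% FBS, then exposed to serially diluted antibody-drug conjugates or free camptothecin drug for 4 days at 37 °C. Growth inhibition was read by luminescence, and IC50 values were reported in ng/mL and nmol/L.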

[5] = system: renal carcinoma cells (786-O); experiment: In vitro potency (CellTiter-Glo, 96 h), 786-O; assay type: cell-based; settings: Homo sapiens, 786-0, 96 h
Method in brief: as §4

[6] = system: Hodgkin's lymphoma cells (L540cy); experiment: In vitro potency (CellTiter-Glo, 96 h), L540cy; assay type: cell-based
Method in brief: as §4

[7] = system: acute myeloid leukemia cells (MOLM-13); experiment: In vitro potency (CellTiter-Glo, 96 h), MOLM-13; assay type: cell-based; settings: Homo sapiens, MOLM-13, 96 h
Method in brief: as §4

melanoma cells (A2058) = experiment: In vitro potency (CellTiter-Glo, 96 h), A2058; assay type: cell-based; settings: Homo sapiens, A2058, 96 h, read-out: A2058 IC50
Method in brief: as §4

[8] = system: anaplastic large cell lymphoma cells (Karpas299); experiment: In vitro potency (CellTiter-Glo, 96 h), Karpas299; assay type: cell-based; settings: Homo sapiens, KARPAS-299, 96 h, 96 h
Method in brief: as §4

Ls174T cells = experiment: In vitro potency (CellTiter-Glo, 96 h), Ls174T; assay type: cell-based; settings: Homo sapiens, LS174T, 96 h
Method in brief: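 Medium: RPMI 1640 + 20% FBS. Pre-seeding: 24 h. Treatment: ADC or CPT free drug serial dilutions, 96 h, 37 °C. Read-out: luminescence; IC50 in ng/mL and nmol/L.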

[9] = system: anaplastic large cell lymphoma cells (DELBVR); experiment: In vitro potency (CellTiter-Glo, 96 h), DELBVR; assay type: cell-based
Method in brief: as §4

[10] = system: non-small-cell lung cancer cells (Calu1); experiment: In vitro potency (CellTiter-Glo, 96 h), Calu1; assay type: cell-based; settings: Homo sapiens, Calu-1, 96 h, read-out: Calu1 IC50
Method in brief: as §4

[11] = system: breast cancer cells (MDA-MB-231); experiment: In vitro potency (CellTiter-Glo, 96 h), MDA-MB-231; assay type: cell-based; settings: Homo sapiens, MDA-MB-231, 96 h, 96 h
Method in brief: as §4

[12] = system: anaplastic large cell lymphoma cells (DEL); experiment: In vitro potency (CellTiter-Glo, 96 h), DEL; assay type: cell-based
Method in brief: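 Cells in log-phase growth seeded 24 h in RPMI 1640 with 20% FBS, then exposed to serially diluted ADC or CPT free drug for 96 h at 37 °C. Growth inhibition read by CellTiter-Glo luminescence; IC50 reported in ng/mL or nmol/L.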

[13] = system: h00-5, non-binding control antibody h00 conjugated with mp-D-Leu-Ala-Glu-PABC-MMAE (Drug Linker compound 5)
[14] = system: h00-7, non-binding control antibody h00 conjugated with mp-Leu-Ala-Glu-PABC-MMAE (Drug Linker compound 7)
[15] = system: h00-37, non-binding control antibody h00 conjugated with mp-val-cit-PABC-MMAE (compound 37)
[16] = read-out: IC50 SU-DHL-4, camptothecin drugs, Table 13, CellTiter-Glo after 96 h exposure
[17] = read-out: IC50 BxPC3, camptothecin drugs, Table 13, CellTiter-Glo after 96 h exposure
[18] = read-out: IC50 786-O, camptothecin drugs, Table 13, CellTiter-Glo after 96 h exposure
[19] = read-out: IC50 L540cy, camptothecin drugs, Table 13, CellTiter-Glo after 96 h exposure
[20] = read-out: IC50 MOLM-13, camptothecin drugs, Table 13, CellTiter-Glo after 96 h exposure

CC[C@@]1(O)C(=O)OCc2c1cc1n(c2=O)Cc2c-1nc1cc3c(cc1c2CNc1ccc(N)cc1)OCO3 [Compound 7ab]
IC50 [1]: 1 nM
IC50 (U266 cells): 2 nM
IC50 [2]: 0.4 nM
IC50 [3, 16]: 0.4 nM
IC50 [4, 17]: 1 nM
IC50 [5, 18]: 1 nM
IC50 [6, 19]: 0.4 nM
IC50 [7, 20]: 0.3 nM

CC[C@@]1(O)C(=O)OCc2c1cc1n(c2=O)Cc2c-1nc1cc3c(cc1c2CNc1ccccc1N)OCO3 [Compound 7ac]
IC50 [1]: 4 nM
IC50 (U266 cells): 8 nM
IC50 [2]: 2 nM
IC50 [3, 16]: 1 nM
IC50 [4, 17]: 5 nM
IC50 [5, 18]: 2 nM
IC50 [6, 19]: 2 nM
IC50 [7, 20]: 1 nM

CC[C@@]1(O)C(=O)OCc2c1cc1n(c2=O)Cc2c-1nc1cc3c(cc1c2CNc1cccc(N)c1)OCO3 [Compound 7ad]
IC50 [1]: 7 nM
IC50 (U266 cells): 8 nM
IC50 [2]: 2 nM
IC50 [3, 16]: 2 nM
IC50 [4, 17]: 6 nM
IC50 [5, 18]: 5 nM
IC50 [6, 19]: 2 nM
IC50 [7, 20]: 1 nM

CC[C@@]1(O)C(=O)OCc2c1cc1n(c2=O)Cc2c-1nc1cc3c(cc1c2CN1CCC(NC(=O)OC(C)(C)C)CC1)OCO3 [Compound 7y]
IC50 (melanoma cells (A2058); camptothecin free drug, 96 h): 7 nM
IC50 ([8]; camptothecin free drug, read-out: Karpas299 IC50): 36 nM
IC50 (Ls174T cells; camptothecin free drug, read-out: Ls174T IC50): 17 nM
IC50 ([3]; camptothecin free drug, 96 h, read-out: SU-DHL-4 IC50): 23 nM
IC50 ([4]; camptothecin free drug, 96 h, read-out: BxPC3 IC50): 28 nM
IC50 ([5]; camptothecin free drug, 96 h, read-out: 786-O IC50): 31 nM
IC50 ([9]; camptothecin free drug, read-out: DELBVR IC50): 14 nM
IC50 ([10]; camptothecin free drug, 96 h): 896 nM
IC50 ([11]; camptothecin free drug, read-out: MDAMB231 IC50): 140 nM
IC50 ([12]; camptothecin free drug, read-out: DEL IC50): 8 nM
IC50 ([6]; camptothecin free drug, read-out: L540cy IC50): 15 nM
IC50 ([7]; camptothecin free drug, 96 h, read-out: MOLM-13 IC50): 68 nM

CCc1c(C)c(F)cc2nc3c(c(CN)c12)Cn1c-3cc2c(c1=O)COC(=O)[C@]2(O)CC [Compound 10, (S)-11-(aminomethyl)-4,10-diethyl-8-fluoro-4-hydroxy-9-methyl-1,12-dihydro-14H-pyrano[3′,4′:6,7]indolizino[1,2-b]quinoline-3,14(4H)-dione]
IC50 (melanoma cells (A2058)): 33 nM
IC50 ([8]; read-out: Karpas299 IC50, Table 28, CPT free drugs, anaplastic large cell lymphoma cells Karpas299, CellTiter-Glo): 57 nM
IC50 (Ls174T cells; read-out: Ls174T IC50, Table 28, CPT free drugs, Ls174T cells, CellTiter-Glo): 33 nM
IC50 ([3]; read-out: SU-DHL-4 IC50, Table 28, CPT free drugs, B-lymphocyte cancer cells SU-DHL4, 96 h, CellTiter-Glo): 15 nM
IC50 ([4]; read-out: BxPC3 IC50, Table 28, CPT free drugs, pancreatic cancer cells BxPC3, 96 h, CellTiter-Glo): 64 nM
IC50 ([5]; read-out: 786-O IC50, Table 28, CPT free drugs, renal carcinoma cells 786-O, 96 h, CellTiter-Glo): 54 nM
IC50 ([9]; read-out: DELBVR IC50, Table 28, CPT free drugs, anaplastic large cell lymphoma cells DELBVR, CellTiter-Glo): 15 nM
IC50 [10]: 95 nM
IC50 ([11]; read-out: MDAMB231 IC50, Table 28, CPT free drugs, breast cancer cells MDA-MB-231, CellTiter-Glo): 59 nM
IC50 ([12]; read-out: DEL IC50, Table 28, CPT free drugs, anaplastic large cell lymphoma cells DEL, CellTiter-Glo): 7 nM
IC50 ([6]; read-out: L540cy IC50, Table 28, CPT free drugs, Hodgkin's lymphoma cells L540cy, CellTiter-Glo): 51 nM
IC50 ([7]; read-out: MOLM-13 IC50, Table 28, CPT free drugs, acute myeloid leukemia cells MOLM-13, 96 h, CellTiter-Glo): 149 nM

Cathepsin B
percentage of drug cleaved from the heavy chain (QToF mass spectrometry after 3 h at 37 C, pH 4.5) [13]: percentage of drug cleaved from the heavy chain of non-targeted ADCs 5 and 7 in vitro by Cathepsin B is similar to that found for non-targeted ADC 37
percentage of drug cleaved from the heavy chain (QToF mass spectrometry after 3 h at 37 C, pH 4.5) [14]: percentage of drug cleaved from the heavy chain of non-targeted ADCs 5 and 7 in vitro by Cathepsin B is similar to that found for non-targeted ADC 37
percentage of drug cleaved from the heavy chain (QToF mass spectrometry after 3 h at 37 C, pH 4.5) [15]: percentage of drug cleaved from the heavy chain of non-targeted ADCs 5 and 7 in vitro by Cathepsin B is similar to that found for non-targeted ADC 37

neutrophil elastase
percentage of drug cleaved from the heavy chain (QToF mass spectrometry after 3 h at 37 C) [13]: no proteolosis of h00-5 by neutrophil elastase was observed
percentage of drug cleaved from the heavy chain (QToF mass spectrometry after 3 h at 37 C) [14]: the h00-5 conjugate ... has its heavy chain cleaved by neutrophil elastase to a significantly lower extent than h00-7
percentage of drug cleaved from the heavy chain (QToF mass spectrometry after 3 h at 37 C) [15]: percentage of drug cleaved from the heavy chain of non-targeted ADC 5 in vitro by neutrophil elastase is lower than that found for non-targeted ADC 37
